Measured values published in ChEMBL document CHEMBL1121645, “Pyrimidine acyclic nucleosides, 1-[(2-Hydroxyethoxy)methyl]pyrimidines as candidate antivirals” (J Med Chem, 1981).

Experiments:
[1] = test system: Thymidine kinase (Human alphaherpesvirus 1); test: Compound was evaluated for the inhibitory activity against HSV-1 encoded thymidine kinase at 300 uM
[2] = test system: Thymidine kinase (Human alphaherpesvirus 1); test: Compound was evaluated for the inhibitory activity against HSV-1 encoded thymidine kinase at 300 uM; 45-56% inhibition

inhibition [1] | inhibition [2] | SMILES
56% |  | O=c1[nH]c(=O)n(COCCO)cc1C(F)(F)F
56% |  | O=c1[nH]c(=O)n(COCCO)cc1I
 | 45% | O=C(OCCOCn1ccc(=O)[nH]c1=O)c1ccccc1
